# Source: publication PMC8386747, “Structure–activity relationship, in vitro and in vivo evaluation of novel dienyl sulphonyl fluorides as selective BuChE inhibitors for the treatment of Alzheimer's disease” (Journal of Enzyme Inhibition and Medicinal Chemistry, 2021)
# Where two headings read alike, the source gives them in different places.
# Tests used:
# [1] = PAMPA-BBB, reported data from the reference; cited from earlier work
# in vitro = conditions: PAMPA
# Procedure: (§1) The 96-well UV plate (COSTAR) was manufactured by Corning Corporation, USA, and the commercially available drugs and test compounds were initially dissolved in DMSO at a concentration of 20 mg/mL. The solution was then diluted 200-fold with PBS (pH 7.4 ± 0.1)/EtOH (70/30, v/v) solution to a final concentration of 100 µg/mL.
# (§2) The test compound was dissolved in DMSO at 5 mg/mL and diluted 200-fold with universal buffer (final concentration 25 µg/mL) to prepare the secondary stock solution; 200 µL of the secondary stock solution was added to the donor well; the acceptor plate was coated with 4 µL of 20 mg/mL dodecyl porcine polar brain, and then, 200 µL of pH 7.4 universal buffer was added to the acceptor well; the acceptor plate was carefully placed on the donor plate to form a “sandwich” and maintained for 18 h; the drug concentrations in the acceptor, donor and reference wells were determined using a UV microplate reader; the experiment was repeated three times, and the concentrations of the test compound in the donor and acceptor wells were measured using a UV plate spectral reader (PerkinElmer VICT or Nivo, Finland). In at least three independent experiments, each sample was analysed at three wavelengths in a four well.
# BuChE from equine serum = target: T1, BuChE from equine serum (Equus caballus, UniProt P81908); experiment: eqBuChE inhibition assay (Ellman's method); type: biochemical; conditions: BuChE from horse serum; for IC50: mean ± SEM; for inhibition at 20 µM: read-out: BuChE % inhibition at 20 µM
# T1 construct: BuChE from equine serum (C4290-1KU; Sigma); purchased Sigma C4290-1KU; host or cells: equine serum
# Procedure: (§3) According to the Ellman’s method, assays were performed on AChE from electric eel (C3389-500UN; Sigma) and BuChE from equine serum (C4290-1KU; Sigma). The experiment was performed in 48-well plates in a final volume of 500 µL. Each well contained 0.036 U/mL of eeAChE or eqBuChE, and 0.1 M pH 8 PBS. They were pre-incubated for 20 min at different compound concentrations at 37 °C. […] The DTNB produces the yellow anion 5-thio-2-nitrobenzoic acid along with the enzymatic degradation of ACh or BuCh. Changes in absorbance were measured at 410 nm after 20 min in a PerkinElmer VICTOR Nivo reader. The IC50 values were calculated graphically from inhibition curves (log inhibitor concentration vs percent of inhibition). A control experiment was performed under the same conditions without inhibitor and the blank contained buffer, DMSO, DTNB, and substrate.
# AChE from electric eel = target: T2, AChE from electric eel (Electrophorus electricus, UniProt O42275); experiment: EeAChE inhibition assay (Ellman's method); type: biochemical; conditions: for inhibition at 20 µM: read-out: AChE % inhibition at 20 µM
# T2 construct: assays were performed on AChE from electric eel (C3389-500UN; Sigma); purchased Sigma C3389-500UN
# Procedure: as §3
# [2] = for BBB penetration: PAMPA-BBB class
# Procedure: as §1, §2
# [3] = target: T3, recombinant human AChE (hAChE) (Homo sapiens, UniProt P22303); experiment: hAChE inhibition assay (Ellman's assay); type: biochemical
# T3 construct: purchased Sigma C1682
# Procedure: The solution was diluted to 5 concentrations of 200, 100, 10, 1 and 0.1 µM in ethanol. Measurements were performed using 96-well plates. Buffer (40 µL), sample at a series of concentrations (10 µL), AChE (10 µL), and dibutyl succinate (20 µL) were successively added. The mixture was then incubated for 5 min at 37 °C. Then, 20 µL of ACh or BuCh were added and the reaction started. […] For the blank value, 10 µL of water was used instead of the inhibitor solution. The activity of the inhibitor was expressed as a logarithmic plot of the percentage of enzyme activity (with 100% as the reference) versus the concentration of the compound. IC50 values were determined graphically from inhibition curves (log inhibitor concentration versus percent inhibition).
# [4] = system: Aβ1-42-induced cognitive dysfunction; experiment: Morris water maze in Aβ1-42-induced cognitive impairment model; type: in vivo, mouse; conditions: mice, Aβ1-42 10 µg icv; 15 mg/kg po Day 3 to Day 14
# Procedure: All experiments were performed according to the National Institutes of Health Guide for the Care and Use of Laboratory Animals. The Measures for the Care and Treatment of Laboratory Animals were approved by the Animal Care and Use Committee of Anhui Medical University. Male ICR mice were used in the animal centre of Anhui Medical University (Hefei). Male mice (18‒24 g) aged 6‒8 weeks, 10 mice per cage, room temperature 22 ± 2 °C, light/dark (12:12 h) cycle. These animals had access to food and water prior to testing. The ambient temperature and relative humidity (50%) of the room remained consistent throughout all tests. Behavioural experiments: MWM was used for cognitive function, and mice were randomly selected for behavioural experiments. Each experimental group consisted of 8‒10 mice/dose. The experimental time was from 08:00 to 14:00, and the mice were sacrificed by cervical dislocation immediately after the end of the experiment. […]. Aβ1-42 aggregation was induced by dissolving the Aβ1-42 peptide in DMSO as a stock solution of 5 mM and incubating it in saline at a final concentration of 2 mg/mL for 24 h at 37 °C.
# The behavioural study was a water maze experimental behavioural study on days 10 − 15, including a 5-day learning and memory training, and a test assessment on day 6. MWM consists of a water-filled pool (grey, circular, 1.20 m in diameter, 0.60 m in height) and a platform with adjustable height and movable position. The pool was divided into four equal quadrants (compass position: NE, NW, SE, SW) using a computerised video tracking system (SMART, version 3.0; Panlab, Spain). The pool was filled with water, generally about 48 cm below the edge, to prevent animals from jumping out, and the water temperature was maintained at 22 ± 1 °C. […] The time to reach the hidden platform (i.e. escape latency), the distance to reach the hidden platform, the distance in the target (NW) area, and the average speed were recorded. […]
# [5] = AChE from electric eel, 20 µM, na = no inhibitory activity at 20 µM
# [6] = AChE from electric eel, mean ± SEM, read-out: AChE IC50
# [7] = pH 7.4, Pe×10^-6cm/s Exp. value, PAMPA-BBB, three independent experiments
# T1 sequence (P81908 whole entry): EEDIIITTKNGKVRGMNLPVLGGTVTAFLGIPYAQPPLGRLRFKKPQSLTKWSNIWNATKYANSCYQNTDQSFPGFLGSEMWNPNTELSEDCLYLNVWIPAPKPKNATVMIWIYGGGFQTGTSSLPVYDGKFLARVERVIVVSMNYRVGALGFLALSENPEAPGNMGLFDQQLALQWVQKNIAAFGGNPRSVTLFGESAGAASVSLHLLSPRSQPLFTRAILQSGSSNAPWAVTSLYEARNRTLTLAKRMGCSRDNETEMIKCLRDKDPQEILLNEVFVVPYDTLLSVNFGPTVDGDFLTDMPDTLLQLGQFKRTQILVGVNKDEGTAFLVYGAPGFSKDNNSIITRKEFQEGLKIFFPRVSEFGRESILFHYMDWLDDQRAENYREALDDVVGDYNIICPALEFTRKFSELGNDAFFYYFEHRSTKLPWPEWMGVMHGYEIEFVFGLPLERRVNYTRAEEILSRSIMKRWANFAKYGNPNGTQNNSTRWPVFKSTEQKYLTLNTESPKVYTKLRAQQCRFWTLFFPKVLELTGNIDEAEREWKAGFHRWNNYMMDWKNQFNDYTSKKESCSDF
# T2 sequence (O42275 24-633): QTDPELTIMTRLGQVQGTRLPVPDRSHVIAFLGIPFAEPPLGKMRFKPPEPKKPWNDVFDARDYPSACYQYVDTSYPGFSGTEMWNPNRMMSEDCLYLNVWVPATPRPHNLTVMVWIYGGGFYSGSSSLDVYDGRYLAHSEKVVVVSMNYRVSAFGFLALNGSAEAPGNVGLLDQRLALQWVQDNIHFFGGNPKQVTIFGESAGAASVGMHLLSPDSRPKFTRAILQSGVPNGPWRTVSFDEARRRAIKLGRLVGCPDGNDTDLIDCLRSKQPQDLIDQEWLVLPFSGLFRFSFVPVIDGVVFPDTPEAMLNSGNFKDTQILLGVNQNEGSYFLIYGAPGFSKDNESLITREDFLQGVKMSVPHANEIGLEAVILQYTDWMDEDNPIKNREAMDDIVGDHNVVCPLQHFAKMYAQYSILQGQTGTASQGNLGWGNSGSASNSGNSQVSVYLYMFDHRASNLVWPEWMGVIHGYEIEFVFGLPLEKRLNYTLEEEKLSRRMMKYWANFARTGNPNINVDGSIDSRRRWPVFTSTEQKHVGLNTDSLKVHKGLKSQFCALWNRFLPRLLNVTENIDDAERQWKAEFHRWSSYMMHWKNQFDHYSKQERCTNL
# T3 sequence (P22303 32-614): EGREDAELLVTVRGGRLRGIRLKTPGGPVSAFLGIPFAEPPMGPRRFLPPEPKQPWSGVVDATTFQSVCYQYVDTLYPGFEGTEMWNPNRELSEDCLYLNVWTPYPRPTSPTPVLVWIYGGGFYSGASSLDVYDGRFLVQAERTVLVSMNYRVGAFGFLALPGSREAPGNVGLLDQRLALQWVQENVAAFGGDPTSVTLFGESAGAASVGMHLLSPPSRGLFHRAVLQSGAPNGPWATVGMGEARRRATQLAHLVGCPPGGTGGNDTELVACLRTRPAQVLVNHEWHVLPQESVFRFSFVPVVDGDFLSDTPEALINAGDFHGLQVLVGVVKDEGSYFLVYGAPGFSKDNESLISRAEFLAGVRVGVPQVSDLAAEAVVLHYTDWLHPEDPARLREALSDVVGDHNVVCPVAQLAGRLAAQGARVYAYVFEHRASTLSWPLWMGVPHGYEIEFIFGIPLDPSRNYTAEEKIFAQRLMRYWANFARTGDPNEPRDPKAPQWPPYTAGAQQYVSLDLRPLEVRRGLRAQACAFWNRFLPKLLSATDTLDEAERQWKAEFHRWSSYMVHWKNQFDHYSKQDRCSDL
SMILES,IC50 (BuChE from equine serum),inhibition at 20 µM (AChE from electric eel; [5]),further results
"Clc1cccc(Cl)c1N=C1NCCN1 [Clonidine, reference compound]",–,–,"Pe×10^-6cm/s BibL. value [1]: 5.3 ×10^-6cm/s; Papp (in vitro; pH 7.4, Pe×10^-6cm/s Exp. value): 7.85 ×10⁻⁶ cm/s"
"O=S(=O)(F)C(Br)=CC=Cc1ccccc1 [Compound A1, δ-phenyl-α-Br-dienyl sulphonyl fluoride]",82 ± 7 nM,–,–
O=S(=O)(F)C(Br)=CC=Cc1ccc(F)cc1 [Compound A2],430 ± 10 nM,–,–
O=S(=O)(F)C(Br)=CC=Cc1ccc(Cl)cc1 [Compound A3],–,–,BuChE % inhibition at 20 µM (BuChE from equine serum): 42.2 ± 2.1%; AChE % inhibition at 20 µM (AChE from electric eel; [5]): 33.9 ± 0.9%
O=S(=O)(F)C(Br)=CC=Cc1ccc(Br)cc1 [Compound A4],–,–,BuChE % inhibition at 20 µM (BuChE from equine serum): 19.2 ± 1.2%
Cc1ccc(C=CC=C(Br)S(=O)(=O)F)cc1 [Compound A5],1720 ± 340 nM,–,–
COc1ccc(C=CC=C(Br)S(=O)(=O)F)cc1 [Compound A6],310 ± 40 nM,–,–
O=S(=O)(F)C(Br)=CC=Cc1ccc(-c2ccccc2)cc1 [Compound A7],–,11.9 ± 0.5%,inhibition at 20 µM (BuChE from equine serum): 45.2 ± 2%
O=S(=O)(F)C(Br)=CC=Cc1ccccc1Br [Compound A8],440 ± 180 nM,–,"BBB penetration [2]: CNS+ (“CNS +” (high BBB permeation): Pe (× 10^‒6 cm/s) >4.0); Pe×10^-6cm/s Exp. value ([2]; PAMPA-BBB, three independent experiments): 10.7 ×10^-6cm/s; IC50 (AChE from electric eel; [6]): 107 ± 2 nM; Papp (in vitro; pH 7.4, Pe, PAMPA-BBB): 10.7 ×10⁻⁶ cm/s"
Cc1ccccc1C=CC=C(Br)S(=O)(=O)F [Compound A9],300 ± 110 nM,23.2 ± 4%,–
O=[N+]([O-])c1ccccc1C=CC=C(Br)S(=O)(=O)F [Compound A11],270 ± 150 nM,–,IC50 (AChE from electric eel; [6]): 150 ± 10 nM
O=S(=O)(F)C(Br)=CC=Cc1ccc2ccccc2c1 [Compound A12],2910 ± 260 nM,–,–
O=S(=O)(F)C(Br)=CC=Cc1cccs1 [Compound A13],320 ± 60 nM,–,–
O=S(=O)(F)C(Br)=CC=Cc1cccc(Cl)c1 [Compound A14],110 ± 20 nM,17.9 ± 2%,–
Cc1cccc(C=CC=C(Br)S(=O)(=O)F)c1 [Compound A15],600 ± 120 nM,–,–
COc1cccc(C=CC=C(Br)S(=O)(=O)F)c1 [Compound A16],300 ± 40 nM,35.9 ± 1.4%,–
O=S(=O)(F)C(Br)=CC=Cc1cccc(C(F)(F)F)c1 [Compound A17],430 ± 30 nM,12.1 ± 0.7%,–
O=S(=O)(F)C(Br)=CC=Cc1ccc(Cl)nc1 [Compound A18],–,–,inhibition at 20 µM [3]: 14.3 ± 0.9%; inhibition at 20 µM (BuChE from equine serum): 42.8 ± 3.6%; IC50 (AChE from electric eel): 79 ± 2 nM
Cc1ccc(S(=O)(=O)n2cc(C=CC=C(Br)S(=O)(=O)F)c3ccccc32)cc1 [Compound A19],–,46.2 ± 0.4%,inhibition at 20 µM (BuChE from equine serum): 46 ± 1.6%
O=S(=O)(F)C(Br)=CC=CC=Cc1ccccc1 [Compound A20],12500 nM,–,inhibition at 20 µM (AChE from electric eel): 18.7 ± 2.4%
O=S(=O)(F)/C(Cl)=C/C=C/c1ccccc1 [Compound B1],440 ± 40 nM,35.9 ± 1.4%,–
O=S(=O)(F)/C(Cl)=C/C=C/c1ccc(F)cc1 [Compound B2],510 ± 10 nM,18.7 ± 1.7%,–
COc1ccc(/C=C/C=C(\Cl)S(=O)(=O)F)cc1 [Compound B4],540 ± 190 nM,30.1 ± 3.8%,–
COc1ccccc1/C=C/C=C(\Cl)S(=O)(=O)F [Compound B5],130 ± 10 nM,34.2 ± 0.4%,–

SMILES,IC50 (BuChE from equine serum),inhibition at 20 µM (AChE from electric eel; [5]),further results
O=S(=O)(F)/C(Cl)=C/C=C/c1cccc(C(F)(F)F)c1 [Compound B6],500 ± 210 nM,26.8 ± 2.7%,–
"O=S(=O)(F)/C(I)=C/C=C/c1ccccc1 [Compound C1, δ-phenyl-α-I-dienyl sulphonyl fluoride]",1760 ± 620 nM,23.4 ± 2.8%,–
O=S(=O)(F)/C(I)=C/C=C/c1ccc(F)cc1 [Compound C2],450 ± 30 nM,17 ± 1.7%,–
O=S(=O)(F)/C(I)=C/C=C/c1ccc(Cl)cc1 [Compound C3],3070 ± 1720 nM,38.9 ± 2.5%,–
O=S(=O)(F)/C(I)=C/C=C/c1ccc(Br)cc1 [Compound C4],570 ± 30 nM,10.5 ± 3.6%,–
COc1ccccc1/C=C/C=C(\I)S(=O)(=O)F [Compound C5],190 ± 40 nM,39.5 ± 0.3%,–
O=S(=O)(F)/C(I)=C/C=C/c1cccc(C(F)(F)F)c1 [Compound C6],500 ± 40 nM,24 ± 6%,–
CCc1ccc(/C(=C\C=C\c2ccccc2)S(=O)(=O)F)cc1 [Compound D1],1180 ± 330 nM,25.1 ± 1.6%,–
CSc1ccc(/C(=C\C=C\c2ccccc2)S(=O)(=O)F)cc1 [Compound D2],–,25.5 ± 0.4%,inhibition at 20 µM (BuChE from equine serum): 28.2 ± 1.89%
COc1ccc(/C(=C\C=C\c2ccccc2)S(=O)(=O)F)cc1 [Compound D3],–,47.9 ± 0.4%,inhibition at 20 µM (BuChE from equine serum): 33.7 ± 1.8%
O=S(=O)(F)/C(=C/C=C/c1ccccc1)c1ccc(Oc2ccccc2)cc1 [Compound D4],–,36.7 ± 2.8%,inhibition at 20 µM (BuChE from equine serum): 41.2 ± 1.1%
O=S(=O)(F)/C(=C/C=C/c1ccccc1)c1ccc(Br)cc1 [Compound D5],–,29 ± 3.4%,inhibition at 20 µM (BuChE from equine serum): 30.5 ± 0.9%
O=C(Oc1ccc(/C(=C\C=C\c2ccccc2)S(=O)(=O)F)cc1)c1ccccc1 [Compound D6],–,18.7 ± 2.1%,inhibition at 20 µM (BuChE from equine serum): 29.7 ± 3.8%
O=S(=O)(F)/C(=C/C=C/c1ccccc1)c1ccc2ccccc2c1 [Compound D7],–,42.3 ± 0.5%,inhibition at 20 µM (BuChE from equine serum): 7.4 ± 0.2%
O=S(=O)(F)/C(C#Cc1cccc(Br)c1)=C/C=C/c1ccccc1 [Compound D8],4560 ± 2650 nM,–,IC50 (AChE from electric eel; [6]): 2730 ± 100 nM
O=S(=O)(F)/C(C#Cc1ccccc1F)=C/C=C/c1ccccc1 [Compound D9],–,47.7 ± 1.9%,inhibition at 20 µM (BuChE from equine serum): 31.7 ± 1%
O=S(=O)(F)/C(C#Cc1ccc(Br)cc1)=C/C=C/c1ccccc1 [Compound D10],–,36.9 ± 1.2%,inhibition at 20 µM (BuChE from equine serum): 22.6 ± 0.7%
O=S(=O)(F)/C(C#Cc1ccccc1)=C/C=C/c1ccccc1 [Compound D11],–,30.4 ± 0.1%,inhibition at 20 µM (BuChE from equine serum): 24.3 ± 0.4%
Cc1ccc(C#C/C(=C\C=C\c2ccccc2)S(=O)(=O)F)cc1 [Compound D12],–,43.5 ± 4%,inhibition at 20 µM (BuChE from equine serum): 34.7 ± 0.1%
O=S(=O)(F)/C(C#Cc1ccsc1)=C/C=C/c1ccccc1 [Compound D13],–,14.7 ± 0.2%,inhibition at 20 µM (BuChE from equine serum): 31.3 ± 0.4%
O=S(=O)(F)/C(C#CC1CC1)=C/C=C/c1ccccc1 [Compound D14],430 ± 80 nM,–,IC50 (AChE from electric eel; [6]): 1540 ± 320 nM
"COc1cc2c(cc1OC)C(=O)C(CC1CCN(Cc3ccccc3)CC1)C2 (centres unmarked) [Donepezil, donepezil, reference compound]",–,–,effect on Aβ1-42-induced cognitive dysfunction (MWM) [4]: significantly improved
"CN1C(C(=O)Nc2ccccn2)=C(O)c2ccccc2S1(=O)=O [Piroxicam, reference compound]",–,–,BBB penetration [2]: CNS+ (“CNS +” (high BBB permeation): Pe (× 10^‒6 cm/s) >4.0); Pe×10^-6cm/s BibL. value [1]: 9.3 ×10^-6cm/s; Papp (in vitro; [7]): 9.87 ×10⁻⁶ cm/s
"CC(=O)[C@H]1CC[C@H]2[C@@H]3CCC4=CC(=O)CC[C@]4(C)[C@H]3CC[C@]12C [Progesterone, reference compound]",–,–,BBB penetration [2]: CNS+ (“CNS +” (high BBB permeation): Pe (× 10^‒6 cm/s) >4.0); Papp (in vitro; [7]): 18.2 ×10⁻⁶ cm/s
